{
  "source": "paper PMC8512555",
  "about": "“Patient-Derived Tumor Chemosensitization of GKB202, an Antrodia Cinnamomea Mycelium-Derived Bioactive Compound” (Molecules, 2021)",
  "format_in_all_cases": "cell-based, human",
  "key": {"[1]": {"tested_on": "colorectal cancer (CRC) patient-derived circulating tumor cells", "test": "Ex vivo viability assay (CellTiter-Glo) on patient-derived CTC spheroids, colorectal cancer", "details": "6 days; for anti-CTC effect compared with the 5-FU group: 4 and 20 µg/mL; for relative survival rate: vs untreated control cells", "description": "(§1) Patients who were diagnosed with oral cancer (OC), hepatocellular carcinoma (HCC) and colorectal cancer (CRC) with stage III or IV were recruited and provided written informed consent to participate in this study. For patients enrolled, clinical profiles including initial cancer staging, medication information, and treatment responses were recorded. Peripheral blood (7.5 mL) was collected in vacated ethylenediaminetetraacetic acid (EDTA) tubes and peripheral blood mononuclear cells (PBMCs) were isolated by gradient gravity centrifugation using Ficoll-Paque. Blood was added to a LeucoSep tube filling with 15 mL of Ficoll-Paque Plus in the bottom of the frit and centrifuged to obtain the PBMC fraction. Then PBMC was resuspended in phosphate-buffered saline (PBS) containing 1% BSA, 2 mM EDTA where CTC was enriched by RosetteSep® CTC Enrichment Cocktail kit. Briefly, the PBMC pellet is incubated with antibodies at room temperature, followed by the addition of PBS containing 2% FBS to the diluted sample. The diluted sample was added on the top of Ficoll-Paque for another centrifugation, then enriched cells were obtained and suspended in DMEM/F12 medium containing EGF, bFGF, and B27 supplement. Cells were seeded onto a substrate of binary colloidal crystals (BCCs). The structure of BCCs has been reported for its ability to enhance the expansion of rare cancer cells. The medium was replaced in each well every four days. Tumor-derived CTC spheroids were checked by optical microscopy.\n(§2) To test the anti-tumor activity of natural compounds, CTC spheroids were allowed to grow for four weeks then spheroids were collected to seed into other BCC plates and incubated for 16 h. Two chemotherapy drugs used as the positive control including 5-FU (30 µM), Cisplatin (14.4 µM), GKA201, GKB202 and GKC203 (4 µg/mL and 20 µg/mL) were added to cells and incubated for six days. Cell viability was determined by a CellTiter-Glo® Luminescent Cell Viability Assay (Promega Corporation, Madison, WI, US) where cells were incubated with a Cell-Titer Glo reagent for 10 min and the luminescence was read on a GloMax® Navigator Microplate Luminometer (Promega Corporation, Madison, WI, US). The relative cell viability was calculated as the percentage of cells treated with drugs or natural compounds compared with untreated control cells."}, "[2]": {"tested_on": "oral cancer (OC) patient-derived circulating tumor cells", "test": "Ex vivo viability assay (CellTiter-Glo) on patient-derived CTC spheroids, oral cancer", "details": "for anti-CTC effect compared with the 5-FU group: 4 and 20 µg/mL; for anti-CTC effect compared with the 5-FU group / relative survival rate: 6 days; for relative survival rate: vs untreated control cells; for drug sensitivity of OC patient organoids: Cisplatin and Carboplatin at the same concentration, Figure S3", "description": "as §1, §2"}, "[3]": {"tested_on": "hepatocellular carcinoma (HCC) patient-derived circulating tumor cells", "test": "Ex vivo viability assay (CellTiter-Glo) on patient-derived CTC spheroids, hepatocellular carcinoma", "details": "6 days; for anti-CTC effect compared with the 5-FU group: 4 and 20 µg/mL; for relative survival rate: vs untreated control cells", "description": "as §1, §2"}},
  "data": [
    {"smiles": "CC(C)=CCOc1ccc(C2=C(CC(C)C)C(=O)OC2=O)cc1", "note": "[GKA201]", "values": [
      {"measurement": "anti-CTC effect compared with the 5-FU group", "setting": "[1]", "value": "no significance"},
      {"measurement": "anti-CTC effect compared with the 5-FU group", "setting": "[2]", "value": "no significance"},
      {"measurement": "anti-CTC effect compared with the 5-FU group", "setting": "[3]", "value": "no significance"}
    ]},
    {"smiles": "O=c1[nH]cc(F)c(=O)[nH]1", "note": "[5-FU]", "values": [
      {"measurement": "relative survival rate", "setting": "[1]; 5-FU 30 µM", "value": "49 ± 13", "unit": "%"},
      {"measurement": "relative survival rate", "setting": "[2]; 5-FU 30 µM", "value": "51 ± 13", "unit": "%"},
      {"measurement": "relative survival rate", "setting": "[3]; 5-FU 30 µM", "value": "43 ± 2", "unit": "%"}
    ]},
    {"smiles": "CC(C)=CCOc1ccc(C2=C(CC(C)C)C(=O)N(O)C2=O)cc1", "note": "[GKC203]", "values": [
      {"measurement": "anti-CTC effect compared with the 5-FU group", "setting": "[1]", "value": "no significance"},
      {"measurement": "anti-CTC effect compared with the 5-FU group", "setting": "[2]", "value": "no significance"},
      {"measurement": "anti-CTC effect compared with the 5-FU group", "setting": "[3]", "value": "no significance"}
    ]},
    {"smiles": "N.N.O=C([O-])C1(C(=O)[O-])CCC1.[Pt+2]", "note": "[Carboplatin]", "values": [
      {"measurement": "drug sensitivity of OC patient organoids", "setting": "[2]", "value": "resistant"}
    ]},
    {"smiles": "N.N.[Cl][Pt][Cl]", "note": "[Cisplatin]", "values": [
      {"measurement": "relative survival rate", "setting": "[1]; Cisplatin 14.4 µM", "value": "49 ± 10", "unit": "%"},
      {"measurement": "relative survival rate", "setting": "[2]; Cisplatin 14.4 µM", "value": "21 ± 0.3", "unit": "%"},
      {"measurement": "drug sensitivity of OC patient organoids", "setting": "[2]", "value": "sensitive"},
      {"measurement": "relative survival rate", "setting": "[3]; Cisplatin 14.4 µM", "value": "28 ± 5.8", "unit": "%"}
    ]}
  ]
}
